Experiments:
[1] = biological target: T1, gastrin (Rattus norvegicus, UniProt P30553); assay: gastrin antagonist activity in an immature rat stomach assay (pentagastrin-stimulated acid secretion); details: cumulative pentagastrin dose-response curves after 60 min with drug; for Kb: read-out: Gastrin pKB (converted)
T1 construct: The stomach was lowered into a jacketed organ bath containing 40 ml of buffered solution; from tissue; host or cells: isolated perfused whole stomach of immature rats (ca. 21 days old)
T1 sequence (P30553 1-452): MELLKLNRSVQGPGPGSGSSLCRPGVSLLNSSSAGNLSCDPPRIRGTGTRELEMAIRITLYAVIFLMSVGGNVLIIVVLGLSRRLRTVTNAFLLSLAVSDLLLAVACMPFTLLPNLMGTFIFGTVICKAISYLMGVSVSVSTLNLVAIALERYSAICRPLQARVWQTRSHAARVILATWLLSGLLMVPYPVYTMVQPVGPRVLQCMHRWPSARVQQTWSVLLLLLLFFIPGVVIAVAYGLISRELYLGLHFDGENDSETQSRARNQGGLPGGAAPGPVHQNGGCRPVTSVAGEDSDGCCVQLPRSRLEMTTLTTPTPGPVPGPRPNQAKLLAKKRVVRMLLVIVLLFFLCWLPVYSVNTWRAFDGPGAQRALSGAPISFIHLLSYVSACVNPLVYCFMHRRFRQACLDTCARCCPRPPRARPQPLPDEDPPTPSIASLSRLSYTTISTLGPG
Method: The compounds of the examples were also tested for gastrin antagonist activity in an immature rat stomach assay. The procedure was as follows:
The oesophagus of immature rats (33-50 g, ca. 21 days old) was ligated at the level of the cardiac sphincter and the duodenal sphincter was cannulated. The stomach was excised and flushed with ca. 1 ml of unbuffered physiological saline solution. The fundus was punctured and cannulated. A further 4-5 ml of unbuffered solution was flushed through the stomach to ensure the preparation was not leaking. The stomach was lowered into a jacketed organ bath containing 40 ml of buffered solution containing 3×10^-8 M 5-methylfurmethide, maintained at 37° and gassed vigorously with 95% O2 /5% CO2. The stomach was continuously perfused at a rate of 1 ml min^-1 with unbuffered solution gassed with 100% O2 with the perfusate passing over an internally referenced pH-electrode fixed 12 cm above the stomach.
After 120 min of stabilisation the drugs were added directly to the serosal solution in the organ bath and after a further 60 min cumulative pentagastrin dose-response curves were started. Changes in acid secretion were monitored and the curves analysed according to Black et.al., Br. J. Pharmacol., 1985, 86, 581.

[2] = biological target: T2, CCKA (Cavia porcellus, UniProt Q63931); assay: CCKA radioligand binding assay in guinea-pig pancreas membranes ([125I]-CCK8(S)); details: PD134,308 present, 150 minutes at 21±3°
T2 construct: The pancreatata were homogenised in 40 ml ice-cold HEPES buffer using a polytron; from tissue; host or cells: pancreas membranes of male Dunkin Hartley guinea-pigs
T2 sequence (Q63931 1-430): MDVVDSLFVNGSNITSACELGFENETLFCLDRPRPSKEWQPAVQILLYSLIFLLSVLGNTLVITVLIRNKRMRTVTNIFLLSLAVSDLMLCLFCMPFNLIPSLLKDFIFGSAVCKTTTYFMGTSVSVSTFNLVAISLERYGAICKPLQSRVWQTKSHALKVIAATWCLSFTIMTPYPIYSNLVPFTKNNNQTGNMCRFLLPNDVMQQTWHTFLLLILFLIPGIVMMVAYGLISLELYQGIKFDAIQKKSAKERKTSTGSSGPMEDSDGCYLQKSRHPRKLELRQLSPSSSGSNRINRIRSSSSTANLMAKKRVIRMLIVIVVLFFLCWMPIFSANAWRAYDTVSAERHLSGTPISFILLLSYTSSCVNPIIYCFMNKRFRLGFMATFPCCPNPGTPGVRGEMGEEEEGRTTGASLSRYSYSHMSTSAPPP
Method in brief: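 Male guinea-pig pancreas membranes (1 mg/ml wet tissue in HEPES pH 7.2, suspension containing 0.375 μM PD134,308) were incubated 150 min at 21±3° with [125I]-CCK8(S) ([…] added solution) and competitor. Non-specific binding used 100 nM L-364,718 (added solution). Bound radioligand was measured by GF/B filtration and gamma counting.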

[3] = biological target: T3, CCKB receptor (Mus musculus, UniProt P56481); assay: CCKB receptor radioligand binding assay in mouse cortical membranes ([125I]-CCK8S); details: [125I]-CCK8S 200 pM, 150 min at 21±3°; for Ki: read-out: CCKB pKi (converted)
T3 construct: The cortex was dissected, weighed and homogenised in 40ml ice-cold buffer; tissue Charles River (supplier of the CD1 mice); host or cells: cerebral cortex membranes of male CD1 mice
T3 sequence (P56481 1-453): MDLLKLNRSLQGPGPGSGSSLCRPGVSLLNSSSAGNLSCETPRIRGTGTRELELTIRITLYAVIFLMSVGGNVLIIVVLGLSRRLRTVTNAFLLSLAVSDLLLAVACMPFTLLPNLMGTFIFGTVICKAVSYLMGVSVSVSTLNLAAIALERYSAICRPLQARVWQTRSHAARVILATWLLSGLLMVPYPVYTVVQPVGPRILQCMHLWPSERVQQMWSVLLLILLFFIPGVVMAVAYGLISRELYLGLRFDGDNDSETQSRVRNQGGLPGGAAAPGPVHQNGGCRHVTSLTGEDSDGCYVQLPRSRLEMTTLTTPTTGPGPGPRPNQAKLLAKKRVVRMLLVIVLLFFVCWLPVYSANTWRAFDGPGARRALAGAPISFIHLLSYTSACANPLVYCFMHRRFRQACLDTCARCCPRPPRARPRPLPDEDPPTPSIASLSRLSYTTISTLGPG
Method in brief: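 Cortical membranes from male CD1 mice in HEPES buffer (pH 7.2; NaCl, KCl, MgCl2, EDTA, bacitracin) were incubated with competing compound and [125I]-CCK8S (added as a 200 pM solution) for 150 min at 21±3°. Non-specific binding was defined with L-365,260. Bound tracer was separated by GF/B filtration and counted by gamma counting.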

| Gastrin pKB [1] | CCKA pKi [2] | CCKB pKi [3] | Kb [1] [nM] | Ki [3] [nM] | Ki ([2]; read-out: CCKA pKi (converted)) [nM] | Molecule |
| --- | --- | --- | --- | --- | --- | --- |
| 9.0 | 5.6 | 8.5 |  |  |  | 3-(1S-(3,5-dicarboxyphenylaminocarbonyl)-2-phenyl ethylaminocarbonyl)-2-(1-adamantanemethylaminocarbonyl)-5-aminonaphthalene [Example 116] |
| 8.3 | 5.8 | 8.2 |  |  |  | 3-(1S-(3,5-dicarboxyphenylaminocarbonyl)-2-phenylethylaminocarbonyl)-2-(1-adamantanemethylaminocarbonyl)-5-nitronaphthalene and its regioisomer with groups at positions 2 and 3 reversed [Example 55] |
| 7.5 | 5.1 | 6.9 |  |  |  | 5-(1R-(3,5-dicarboxyphenylaminocarbonyl)-ethylaminocarbonyl)-6-(cycloheptanemethylaminocarbonyl)-indole and regioisomer with substituents at positions 5 and 6 reversed [Example 59] |
| 6.8 | 4.9 | 6.5 |  |  |  | 5-(1S-(3,5-di-methylsulphonylaminophenylaminocarbonyl)-2-phenylethylaminocarbonyl)-6-(1-adamantanemethylaminocarbonyl)-indole [Example 92] |
| 8.5 | 6.3 | 7.9 |  |  |  | 5-(1S-(3,5-dicarboxyphenylaminocarbonyl)-2-phenylethylaminocarbonyl)-6-(1-adamantanemethylaminocarbonyl)-2,3-dihydro-benzofuran [Example 123] |
| 9.1 |  | 8.4 |  |  |  | O=C(O)c1cc(NC(=O)[C@H](Cc2ccccc2F)NC(=O)c2cc3[nH]cnc3cc2C(=O)NCC23CC4CC(CC(C4)C2)C3)cc(C(=O)O)c1 [Example 63, 5-(1S-(3,5-dicarboxyphenylaminocarbonyl)-2-(2-fluorophenyl)ethylaminocarbonyl)-6-(1-adamantanemethylaminocarbonyl)-benzimidazole] |
|  |  |  | 7.94 |  | 7940 | O=C(O)c1cc(NC(=O)[C@H](Cc2ccccc2C(F)(F)F)NC(=O)c2cc3[nH]cnc3cc2C(=O)NCC23CC4CC(CC(C4)C2)C3)cc(C(=O)O)c1 [Example 133, 5-(1S-(3,5-dicarboxyphenylaminocarbonyl)-2-(2-trifluoromethylphenyl)ethylaminocarbonyl)-6-(1-adamantanemethylaminocarbonyl)-benzimidazole] |
|  |  |  | 15.8 | 20 |  | CC(=O)NS(=O)(=O)c1cccc(NC(=O)[C@H](Cc2ccccc2)NC(=O)c2cc3[nH]cnc3cc2C(=O)NCC23CC4CC(CC(C4)C2)C3)c1 [Example 137, 5-(1S-(3-acetylaminosulphonylphenylaminocarbonyl)-2-phenylethylaminocarbonyl)-6-(1-adamantanemethylaminocarbonyl)-benzimidazole] |
|  |  |  | 79.4 | 15.8 |  | O=C(NS(=O)(=O)c1cccc(NC(=O)[C@H](Cc2ccccc2)NC(=O)c2cc3[nH]cnc3cc2C(=O)NCC23CC4CC(CC(C4)C2)C3)c1)c1ccccc1 [Example 139, 5-(1S-(3-benzoylaminosulphonylphenylaminocarbonyl)-2-phenylethylaminocarbonyl)-6-(1-adamantanemethylaminocarbonyl)-benzimidazole] |

Continued, molecule first:

| Molecule | Gastrin pKB [1] | CCKA pKi [2] | CCKB pKi [3] | Kb [1] [nM] | Ki [3] [nM] | Ki ([2]; read-out: CCKA pKi (converted)) [nM] |
| --- | --- | --- | --- | --- | --- | --- |
| 1/2-(1-adamantanemethylaminocarbonyl)-naphthoic acid Regioisomer 1 [Example 21] | 5.3 | 5.2 |  |  |  |  |
| 5-(1R-(3,5-dicarboxyphenylaminocarbonyl)-2-phenylethylaminocarbonyl)-6-(1-adamantanemethylaminocarbonyl)-indole and regioisomer with substituents at positions 5 and 6 reversed [Example 29] | 9.2 | 5.4 | 8.1 |  |  |  |
| 5-(1S-(3,5-dicarboxyphenylaminocarbonyl)-2-(2-fluorophenyl)ethylaminocarbonyl)-6-(1-adamantanemethylaminocarbonyl)-indole and regioisomer with substituents at positions 5 and 6 reversed [Example 27] | 9.2 | 5.6 | 8.5 |  |  |  |
| 5-(1S-(3,5-dicarboxyphenylaminocarbonyl)-2-(3-fluorophenyl)ethylaminocarbonyl)-6-(1-adamantanemethylaminocarbonyl)-indole and regioisomer with substituents at positions 5 and 6 reversed [Example 28] | 9.7 | 5.4 | 8.5 |  |  |  |
| 5-(1S-(3,5-dicarboxyphenylaminocarbonyl)-2-(4-aminophenyl)ethylaminocarbonyl)-6-(1-adamantanemethylaminocarbonyl)-indole and regioisomer with substituents at positions 5 and 6 reversed [Example 31] | 8.9 | 5.5 | 7.9 |  |  |  |
| 5-(1S-(3,5-dicarboxyphenylaminocarbonyl)-2-(4-hydroxyphenyl)e thylaminocarbonyl)-6-(1-adamantanemethylaminocarbonyl)-indole and regioisomer with substituents at positions 5 and 6 reversed [Example 30] | 9.1 | 5.2 | 7.6 |  |  |  |
| 5-(1S-(3,5-dicarboxyphenylaminocarbonyl)-2-phenylethylaminocarbonyl)-6-(1-adamantanemethyl-N-methylaminocarbonyl)-indole and regioisomer with substituents at positions 5 and 6 reversed [Example 41] | 7.8 | 5.7 | 7.8 |  |  |  |
| O=C(O)c1cc(NC(=O)[C@H](Cc2ccccc2)NC(=O)c2cc3c(cc2C(=O)NCC24CC5CC(CC(C5)C2)C4)[nH]c2ccccc23)cc(C(=O)O)c1 [Example 51, 3-(1S-(3,5-dicarboxyphenylaminocarbonyl)-2-phenylethylaminocarbonyl)-2-(1-adamantanemethylaminocarbonyl)-carbazole] |  |  |  | 25.1 | 10 |  |
